Test systems include A549 NSCLC; PC-3 prostate; RPMI-8226 leukemia; CCRF-CEM leukemia; NCI-H226 lung; K-562 leukemia; U251 CNS; RXF 393 renal; SK-MEL-2 melanoma; OVCAR-5 ovarian; NCI/ADR-RES ovarian; HOP-62 NSCLC.
Experiment in all cases: NCI-60 cell line screen, 48 h

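Following 48 hours of exposure in 96-well plates, responses at five concentrations were used to interpolate endpoints linearly. TGI marks complete inhibition of growth.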

In the case of `CC(=O)C(CN1CCCCC1)C(c1ccccc1)c1c(O)c2ccccc2oc1=O` (centres undefined), the TGI in the assay with A549 NSCLC, with PC-3 prostate, with RPMI-8226 leukemia, in the assay with CCRF-CEM leukemia, with NCI-H226 lung and with K-562 leukemia was over 100 µM each time. Moreover, the TGI in the assay with U251 CNS, in the assay on RXF 393 renal, with SK-MEL-2 melanoma, with OVCAR-5 ovarian, in the assay on NCI/ADR-RES ovarian and in the assay on HOP-62 NSCLC was over 100 µM in each case.

Take `CCCCc1c(O)nc(Nc2nc3ccccc3[nH]2)[nH]c1=O`: the TGI in the assay with A549 NSCLC, in the assay with PC-3 prostate, in the assay with RPMI-8226 leukemia, in the assay on CCRF-CEM leukemia, in the assay on NCI-H226 lung and with K-562 leukemia was over 100 µM each time. In addition, the TGI in the assay with U251 CNS, with RXF 393 renal, in the assay on SK-MEL-2 melanoma, in the assay with OVCAR-5 ovarian, in the assay on NCI/ADR-RES ovarian and in the assay on HOP-62 NSCLC was over 100 µM in each case.

Turning to `COc1ccc(N2C(=O)C3c4[nH]c5ccc([N+](=O)[O-])cc5c4C4CCC(C(C)(C)C)CC4C3C2=O)cc1` (centres undefined), the TGI in the assay with A549 NSCLC was over 100 µM; in the assay with PC-3 prostate, over 100 µM; in the assay with RPMI-8226 leukemia, 89.5 µM; in the assay on CCRF-CEM leukemia, over 100 µM; in the assay with NCI-H226 lung it was 72.6 µM; in the assay on K-562 leukemia, 7.33 µM. In addition, the TGI with U251 CNS was 90.7 µM; with RXF 393 renal, 9.34 µM; in the assay with SK-MEL-2 melanoma, over 100 µM; in the assay on OVCAR-5 ovarian it was over 100 µM; with NCI/ADR-RES ovarian it was over 100 µM; in the assay on HOP-62 NSCLC it was 78.8 µM.

As for `Cc1sc2nc3n(c(=O)c2c1C)N=CN(c1ccccc1)C3`, the TGI in the assay on A549 NSCLC, in the assay on PC-3 prostate, with RPMI-8226 leukemia, with CCRF-CEM leukemia, with NCI-H226 lung and in the assay on K-562 leukemia was over 100 µM each time. For the same molecule, the TGI in the assay with U251 CNS is over 100 µM; in the assay on RXF 393 renal it was over 100 µM; in the assay with SK-MEL-2 melanoma, over 100 µM; in the assay on OVCAR-5 ovarian, over 100 µM; in the assay on NCI/ADR-RES ovarian it was over 100 µM; in the assay on HOP-62 NSCLC, 65.3 µM.

With `COc1ncc(C=C(C#N)C#N)c(OC)n1`, the TGI with A549 NSCLC was over 100 µM; with PC-3 prostate, over 100 µM; with RPMI-8226 leukemia, 86 µM; in the assay with CCRF-CEM leukemia it was 32.6 µM; in the assay with NCI-H226 lung, over 100 µM; with K-562 leukemia, over 100 µM. The TGI is over 100 µM with U251 CNS; over 100 µM with RXF 393 renal; over 100 µM in the assay with SK-MEL-2 melanoma; over 100 µM in the assay with OVCAR-5 ovarian; 64.1 µM in the assay on NCI/ADR-RES ovarian; over 100 µM in the assay with HOP-62 NSCLC.

With `COC(=O)C1(Cc2ccccc2)Cc2cc3c(cc2C1=O)CCC3` (centres undefined), the TGI is over 100 µM in the assay with A549 NSCLC; over 100 µM in the assay on PC-3 prostate; 52.5 µM in the assay with RPMI-8226 leukemia; 52.9 µM in the assay on CCRF-CEM leukemia; 92.6 µM in the assay on NCI-H226 lung; 81.8 µM with K-562 leukemia. The TGI was over 100 µM with U251 CNS; over 100 µM in the assay with RXF 393 renal; 53.1 µM with SK-MEL-2 melanoma; over 100 µM with OVCAR-5 ovarian; over 100 µM in the assay with NCI/ADR-RES ovarian; over 100 µM in the assay on HOP-62 NSCLC.

Turning to `CCOC(=O)c1sc2nc(SC)nc3c2c1N=CN3c1ccc(Br)cc1`, the TGI with A549 NSCLC, in the assay on PC-3 prostate, in the assay with RPMI-8226 leukemia, in the assay with CCRF-CEM leukemia, in the assay with NCI-H226 lung and in the assay with K-562 leukemia was over 100 µM each time. For the same molecule, the TGI in the assay with U251 CNS, in the assay on RXF 393 renal, in the assay with SK-MEL-2 melanoma, in the assay with OVCAR-5 ovarian, in the assay with NCI/ADR-RES ovarian and with HOP-62 NSCLC was over 100 µM in each case.

With `O=c1oc2ccccc2c(O)c1C(c1cc(OCc2ccccc2)cc(OCc2ccccc2)c1)c1c(O)c2ccccc2oc1=O`, the TGI in the assay with A549 NSCLC is over 56.4 µM; with PC-3 prostate it was 21.1 µM; in the assay with RPMI-8226 leukemia, 6.08 µM; in the assay with CCRF-CEM leukemia, over 22.5 µM; in the assay with NCI-H226 lung it was over 45.3 µM; with K-562 leukemia, over 25.4 µM. The TGI in the assay on U251 CNS was over 47.3 µM; with RXF 393 renal it was over 52 µM; with SK-MEL-2 melanoma, 27.3 µM; in the assay on OVCAR-5 ovarian, 34.5 µM; with NCI/ADR-RES ovarian, 83.9 µM; with HOP-62 NSCLC, 37 µM.

On to `CCN(CC)CCOC(c1cc(OC)ccc1OC)c1ccc2n1-c1ccccc1OC2` (centres undefined), for which the TGI with A549 NSCLC came out at 26.9 µM; in the assay with PC-3 prostate, 27.4 µM; in the assay with RPMI-8226 leukemia it was 16 µM; in the assay with CCRF-CEM leukemia, 17.2 µM; with NCI-H226 lung, 14.6 µM; in the assay with K-562 leukemia, 23.5 µM. Further, the TGI stood at 28.1 µM in the assay with U251 CNS; 21.4 µM in the assay with RXF 393 renal; 26 µM in the assay with SK-MEL-2 melanoma; 37.4 µM in the assay on OVCAR-5 ovarian; 13.9 µM with NCI/ADR-RES ovarian; 40.2 µM with HOP-62 NSCLC.

For the molecule `C=CC(=O)c1ccc2c(c1)OCCOCCOCCOCCOCCO2`, the TGI in the assay on A549 NSCLC was over 100 µM; in the assay on PC-3 prostate, 76.5 µM; with RPMI-8226 leukemia it was over 100 µM; in the assay on CCRF-CEM leukemia, over 100 µM; in the assay on NCI-H226 lung, over 100 µM; in the assay on K-562 leukemia, over 100 µM. The TGI with U251 CNS is over 100 µM; in the assay with RXF 393 renal, 32.3 µM; in the assay with SK-MEL-2 melanoma, over 79.7 µM; with OVCAR-5 ovarian, over 100 µM; in the assay with NCI/ADR-RES ovarian it was 54 µM; in the assay on HOP-62 NSCLC it was over 100 µM.

Turning to `CCOC(=O)c1cc(C2(O)CCN(Cc3ccccc3)C2=O)c(-c2cc(C)no2)[nH]1` (centres undefined), the TGI in the assay on A549 NSCLC, in the assay on PC-3 prostate, in the assay on RPMI-8226 leukemia, in the assay with CCRF-CEM leukemia, with NCI-H226 lung and with K-562 leukemia was over 100 µM throughout. Besides, the TGI with U251 CNS was over 100 µM; in the assay on RXF 393 renal, 65.7 µM; in the assay on SK-MEL-2 melanoma it was over 100 µM; in the assay on OVCAR-5 ovarian, over 100 µM; with NCI/ADR-RES ovarian, over 100 µM; with HOP-62 NSCLC it was over 100 µM.

As for `Cc1cc2c(c(C(=O)NCCC(=O)O)c1)Oc1c(cc(C)cc1C(=O)NCCC(=O)O)S2`, the TGI in the assay with A549 NSCLC, with PC-3 prostate, in the assay on RPMI-8226 leukemia, with CCRF-CEM leukemia, in the assay on NCI-H226 lung and in the assay with K-562 leukemia was over 100 µM each time. The TGI in the assay on U251 CNS, with RXF 393 renal, in the assay with SK-MEL-2 melanoma, in the assay on OVCAR-5 ovarian, in the assay with NCI/ADR-RES ovarian and in the assay with HOP-62 NSCLC was over 100 µM in each case.

On to `CCOP(=O)(OCC)[C@H](O)c1ccsc1`, for which the TGI with A549 NSCLC, in the assay on PC-3 prostate, in the assay with RPMI-8226 leukemia, in the assay with CCRF-CEM leukemia, in the assay on NCI-H226 lung and in the assay on K-562 leukemia was over 100 µM throughout. Also, the TGI in the assay on U251 CNS, in the assay on RXF 393 renal, in the assay with SK-MEL-2 melanoma, in the assay on OVCAR-5 ovarian, in the assay with NCI/ADR-RES ovarian and in the assay with HOP-62 NSCLC was over 100 µM throughout.

For the molecule `Cc1ccc(S(=O)(=O)N2CCN3C(=O)c4ccccc4C32c2ccc(F)cc2)cc1` (centres undefined), the TGI was over 100 µM in the assay with A549 NSCLC; over 100 µM in the assay with PC-3 prostate; 83.3 µM in the assay on RPMI-8226 leukemia; 80 µM with CCRF-CEM leukemia; over 100 µM with NCI-H226 lung; over 100 µM in the assay on K-562 leukemia. Further, the TGI in the assay on U251 CNS, in the assay with RXF 393 renal, in the assay on SK-MEL-2 melanoma, with OVCAR-5 ovarian, in the assay on NCI/ADR-RES ovarian and with HOP-62 NSCLC was over 100 µM throughout.

On to `N#C/C(=C\NC(=S)Nc1ccc(S(=O)(=O)Nc2ccccn2)cc1)C(N)=O`, for which the TGI in the assay on A549 NSCLC, in the assay with PC-3 prostate, with RPMI-8226 leukemia, in the assay with CCRF-CEM leukemia, in the assay on NCI-H226 lung and with K-562 leukemia was over 100 µM in each case. Further, the TGI in the assay on U251 CNS, with RXF 393 renal, with SK-MEL-2 melanoma, with OVCAR-5 ovarian, in the assay on NCI/ADR-RES ovarian and in the assay with HOP-62 NSCLC was over 100 µM throughout.

In the case of `C[C@]12OC[C@H](c3ccccc3)N1C(=O)C1[C@H]2CC12SCCS2` (some centres undefined), the TGI in the assay on A549 NSCLC, with PC-3 prostate, with RPMI-8226 leukemia, with CCRF-CEM leukemia, in the assay on NCI-H226 lung and in the assay with K-562 leukemia was over 100 µM each time. Also, the TGI in the assay on U251 CNS, with RXF 393 renal, with SK-MEL-2 melanoma, in the assay on OVCAR-5 ovarian, in the assay on NCI/ADR-RES ovarian and with HOP-62 NSCLC was over 100 µM throughout.

For the molecule `Cc1ccc(-c2cc(N)n(-c3nc4c([nH]3)c(=O)n(C)c(=O)n4C)n2)cc1`, the TGI with A549 NSCLC is over 100 µM; in the assay with PC-3 prostate, over 100 µM; in the assay on RPMI-8226 leukemia, over 100 µM; in the assay on CCRF-CEM leukemia, over 100 µM; in the assay with NCI-H226 lung it was 22.8 µM; with K-562 leukemia, over 100 µM. For the same molecule, the TGI is over 100 µM in the assay with U251 CNS; 81.1 µM in the assay with RXF 393 renal; 30.8 µM with SK-MEL-2 melanoma; over 100 µM in the assay on OVCAR-5 ovarian; 7.81 µM in the assay on NCI/ADR-RES ovarian; 16.4 µM in the assay with HOP-62 NSCLC.

The record behind these values is PubChem BioAssay (NCI).
